Where “and” joins values, the source holds several entries; their conditions need not be identical. Equal entries are not always repeated. Where two headings read alike, the source gives them in different places.
Legend:
[1] = test system: Enterococcus faecium EFM.14 (ATCC 6569); format: cell-based
Outline: (§1)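 Broth microdilution per CLSI M7-A7 in Mueller Hinton broth supplemented with 50 mg/L calcium; 2-fold compound dilutions, 5×10^5 bacteria per well, DMSO ≤1% final, 18-20 h at 37° C with aeration (200 rpm). MIC (μg/mL) = lowest concentration with no visible turbidity (growth: visible turbidity or OD600 ≥0.1).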

[2] = test system: Enterococcus faecalis EFS.312, Daptomycin resistant mutant (EFA); format: cell-based; conditions: MHBc with 50 mg/L calcium, 18-20 hours at 37° C.
Outline: as §1

[3] = test system: Enterococcus faecium EFM.384, Daptomycin resistant mutant (14-A); format: cell-based; conditions: MHBc with 50 mg/L calcium, 18-20 hours at 37° C.
Outline: as §1

[4] = test system: gram positive bacteria; assay: Antimicrobial activity against a panel of organisms, summary statements; format: cell-based; conditions: statement in words
Experimental: (§2) Compounds according to Formula I were tested for antimicrobial activity against a panel of organisms. Aerobic organisms, Staphylococcus aureus, Enterococcus faecalis and E. faecium, were tested by broth microdilution according to Clinical and Laboratory Standards Institute (CLSI) document M7-A7 (Clinical and Laboratory Standards Institute. Methods for Dilution Antimicrobial Susceptibility Tests for Bacteria that Grow Aerobically; Approved Standard—Seventh Edition. CLSI document M7-A7 [ISBN 1-56238-587-9]. Clinical and Laboratory Standards Institute, 940 West Valley Road, Suite 1400, Wayne, Pa. 19087-1898 USA, 2006) with modifications as described below. Mueller Hinton Broth (MHBc) was supplemented with 50 mg/L calcium (equivalent to human physiological levels of calcium) and assay plates were incubated 18-20 hours at 37° C. with aeration (200 rpm).
(§3) In all cases the final concentration of dimethyl sulfoxide incubated with cells is less than or equal to 1%. For minimum inhibitory concentration (MIC) calculations, 2-fold dilutions of compounds were added to wells of a microtiter plate containing 5×10^5 bacteria in a final volume of 100 μL of media. Following incubation, (18-20 hours at 37° C. with aeration at 200 rpm) growth was confirmed visually by placing plates over a viewing apparatus (stand with a mirror underneath) and then the optical density (OD600) was measured using a SpectraMax 340PC^384 plate reader. Growth was defined as turbidity that could be detected with the naked eye or achieving minimum OD600of 0.1. MIC values (in μg/mL) were defined as the lowest concentration producing no visible turbidity.

[5] = test system: Clostridium difficile
[6] = test system: daptomycin resistant Staph. aureus (DRSA), daptomycin resistant E. faecium (DREfm) and daptomycin resistance E. faecalis (DREfs); assay: Activity against daptomycin resistant bacteria, summary statement; format: cell-based; conditions: statement in words
Experimental: as §2, §3

[7] = test system: Staphylococcus aureus SAU.278, Daptomycin resistant mutant (D10); format: cell-based; conditions: MHBc with 50 mg/L calcium, 18-20 hours at 37° C.
Outline: as §1

[8] = test system: C. difficile spores (ATCC #43596); assay: Hamster C. difficile infection (CDAD) protection model; format: in vivo, Syrian golden hamsters; conditions: oral 0.5 mg/kg once daily for 5 days (MET 70 mg/kg three times daily for 5 days)
Experimental: Syrian golden hamsters were pretreated with 10 mg/kg clindamycin subcutaneously 24 hours before bacterial challenge. An inoculum of 20 C. difficile spores (ATCC #43596) in sterile saline was administered orally. Treatment was initiated 4 hours post-inoculation with dH2O, metronidazole (MET), vancomycin (VAN), or a compound of the present invention. Oral dosing regimens for VAN and compounds of Formula I were 0.5 mg/kg once daily for 5 days. MET was administered at 70 mg/kg three times daily for 5 days. CDAD was confirmed as the cause of death by observations at necropsy, including wet tail and/or macroscopic cecal alterations. The % protection provided by each therapy tested was calculated at 1 and 21 days post-dosing.

[9] = test system: Staphylococcus aureus SAU.42 (ATCC 29213); format: cell-based
Outline: as §1

[10] = test system: Enterococcus faecalis EFS.201 (ATCC 49452); format: cell-based
Outline: as §1

[11] = test system: Staphylococcus aureus SAU.399 (ATCC 43300), Methicillin and Oxacillin Resistant; format: cell-based
Outline: as §1

[12] = MHBc with 50 mg/L calcium, 18-20 hours at 37° C.

Structure (SMILES): CCCCCOc1ccc(-c2ccc(C(=O)N[C@@H](Cc3c[nH]c4ccccc34)C(=O)N[C@H](CC(N)=O)C(=O)N[C@@H](CC(=O)O)C(=O)N[C@@H]3C(=O)NCC(=O)N[C@@H](CCCN)C(=O)N[C@@H](CC(=O)O)C(=O)N[C@H](C)C(=O)N[C@@H](CC(=O)O)C(=O)NCC(=O)N[C@H](CO)C(=O)N[C@@H]([C@H](C)CC(=O)O)C(=O)N[C@@H](CC(=O)c4ccccc4N)C(=O)O[C@@H]3C)cc2)cc1 [Compound 61, N-[4′-(pentyloxy)biphenyl-4-carbonyl]-L-tryptophyl-D-asparaginyl-L-α-aspartyl-L-threonylglycyl-L-ornithyl-L-α-aspartyl-D-alanyl-L-α-aspartylglycyl-D-seryl-(3R)-3-methyl-L-α-glutamyl-(αS)-α,2-diamino-γ-oxobenzenebutanoic acid (13→4)-lactone]
- Efm14 MIC ([1]; ATCC 6569): 0.5 µg/mL
- Efs312 MIC [2]: 4 µg/mL
- Efm384 MIC [3]: 2 µg/mL and 1 µg/mL
- as active or more active than daptomycin [4]: as active or more active than daptomycin
- more active against bacteria than daptomycin [4]: more effective than daptomycin
- C. diff MIC90 [5]: 2 µg/mL
- useful against daptomycin resistant strains of bacteria [6]: useful against daptomycin resistant strains of bacteria

Structure (SMILES): C[C@H](CC(=O)O)[C@@H]1NC(=O)[C@@H](CO)NC(=O)CNC(=O)[C@H](CC(=O)O)NC(=O)[C@@H](C)NC(=O)[C@H](CC(=O)O)NC(=O)[C@H](CCCN)NC(=O)CNC(=O)[C@@H](NC(=O)[C@H](CC(=O)O)NC(=O)[C@@H](CC(N)=O)NC(=O)[C@H](Cc2c[nH]c3ccccc23)NC(=O)C2CCCCCCCCCCC2)[C@@H](C)OC(=O)[C@H](CC(=O)c2ccccc2N)NC1=O [Compound 28, N-cyclododecanecarbonyl-L-tryptophyl-D-asparaginyl-L-α-aspartyl-L-threonylglycyl-L-ornithyl-L-α-aspartyl-D-alanyl-L-α-aspartylglycyl-D-seryl-(3R)-3-methyl-L-α-glutamyl-(αS)-α,2-diamino-γ-oxobenzenebutanoic acid (13→4)-lactone]
- Sa278 MIC [7]: 4 µg/mL and 8 µg/mL
- Efs312 MIC [2]: >32 µg/mL
- Efm384 MIC [3]: 32 µg/mL
- as active or more active than daptomycin [4]: as active or more active than daptomycin
- C. diff MIC90 [5]: 4 µg/mL
- Mean % Protection 1 Day Post Dosing [8]: 100%
- Mean % Protection 21 Days Post Dosing [8]: 100%

Structure (SMILES): CCCCCC1CCC(C(=O)N[C@@H](Cc2c[nH]c3ccccc23)C(=O)N[C@H](CC(N)=O)C(=O)N[C@@H](CC(=O)O)C(=O)N[C@@H]2C(=O)NCC(=O)N[C@@H](CCCN)C(=O)N[C@@H](CC(=O)O)C(=O)N[C@H](C)C(=O)N[C@@H](CC(=O)O)C(=O)NCC(=O)N[C@H](CO)C(=O)N[C@@H]([C@H](C)CC(=O)O)C(=O)N[C@@H](CC(=O)c3ccccc3N)C(=O)O[C@@H]2C)CC1 (some centres unmarked) [Compound 16]
- Sa278 MIC [7]: 8 µg/mL
- Efs312 MIC [2]: 16 µg/mL and >32 µg/mL
- Efm384 MIC [3]: 32 µg/mL and 16 µg/mL
- Sa42 MIC ([9]; ATCC 29213): 0.5 µg/mL
- as active or more active than daptomycin [4]: as active or more active than daptomycin
- Mean % Protection 1 Day Post Dosing [8]: 100%
- Mean % Protection 21 Days Post Dosing [8]: 85%

Structure (SMILES): CCCCc1ccc(/C(C)=C/C(=O)N[C@@H](Cc2c[nH]c3ccccc23)C(=O)N[C@H](CC(N)=O)C(=O)N[C@@H](CC(=O)O)C(=O)N[C@@H]2C(=O)NCC(=O)N[C@@H](CCCN)C(=O)N[C@@H](CC(=O)O)C(=O)N[C@H](C)C(=O)N[C@@H](CC(=O)O)C(=O)NCC(=O)N[C@H](CO)C(=O)N[C@@H]([C@H](C)CC(=O)O)C(=O)N[C@@H](CC(=O)c3ccccc3N)C(=O)O[C@@H]2C)cc1 [Compound 48, N-{1-[(E)-3-(4-butylphenyl)but-2-enoyl]}-L-tryptophyl-D-asparaginyl-L-α-aspartyl-L-threonylglycyl-L-ornithyl-L-α-aspartyl-D-alanyl-L-α-aspartylglycyl-D-seryl-(3R)-3-methyl-L-α-glutamyl-(αS)-α,2-diamino-γ-oxobenzenebutanoic acid (13→4)-lactone]
- Sa278 MIC [7]: 2 µg/mL and 4 µg/mL
- Efm14 MIC ([1]; ATCC 6569): 2 µg/mL
- Efs312 MIC [2]: >32 µg/mL and 32 µg/mL
- Efm384 MIC [3]: 32 µg/mL
- Efs201 MIC ([10]; ATCC 49452): 1 µg/mL
- as active or more active than daptomycin [4]: as active or more active than daptomycin
- C. diff MIC90 [5]: 2 µg/mL
- useful against daptomycin resistant strains of bacteria [6]: useful against daptomycin resistant strains of bacteria

Structure (SMILES): CCCCCCc1ccc(/C(C)=C/C(=O)N[C@@H](Cc2c[nH]c3ccccc23)C(=O)N[C@H](CC(N)=O)C(=O)N[C@@H](CC(=O)O)C(=O)N[C@@H]2C(=O)NCC(=O)N[C@@H](CCCN)C(=O)N[C@@H](CC(=O)O)C(=O)N[C@H](C)C(=O)N[C@@H](CC(=O)O)C(=O)NCC(=O)N[C@H](CO)C(=O)N[C@@H]([C@H](C)CC(=O)O)C(=O)N[C@@H](CC(=O)c3ccccc3N)C(=O)O[C@@H]2C)cc1 [Compound 50, N-{1-[(E)-3-(4-hexylphenyl)but-2-enoyl]}-L-tryptophyl-D-asparaginyl-L-α-aspartyl-L-threonylglycyl-L-ornithyl-L-α-aspartyl-D-alanyl-L-α-aspartylglycyl-D-seryl-(3R)-3-methyl-L-α-glutamyl-(αS)-α,2-diamino-γ-oxobenzenebutanoic acid (13→4)-lactone]
- Sa278 MIC [7]: 1 µg/mL
- Efm14 MIC ([1]; ATCC 6569): 1 µg/mL
- Sa399 MIC ([11]; ATCC 43300): 0.5 µg/mL
- Efs312 MIC [2]: 4 µg/mL
- Efm384 MIC [3]: 4 µg/mL
- Efs201 MIC ([10]; ATCC 49452): 0.25 µg/mL
- as active or more active than daptomycin [4]: as active or more active than daptomycin
- more active against bacteria than daptomycin [4]: more effective than daptomycin
- C. diff MIC90 [5]: 0.5 µg/mL
- useful against daptomycin resistant strains of bacteria [6]: useful against daptomycin resistant strains of bacteria

Structure (SMILES): CCCCCCCCCCOc1ccc(C(=O)N[C@@H](Cc2c[nH]c3ccccc23)C(=O)N[C@H](CC(N)=O)C(=O)N[C@@H](CC(=O)O)C(=O)N[C@@H]2C(=O)NCC(=O)N[C@@H](CCCN)C(=O)N[C@@H](CC(=O)O)C(=O)N[C@H](C)C(=O)N[C@@H](CC(=O)O)C(=O)NCC(=O)N[C@H](CO)C(=O)N[C@@H]([C@H](C)CC(=O)O)C(=O)N[C@@H](CC(=O)c3ccccc3N)C(=O)O[C@@H]2C)cc1 [Compound 38]
- Sa278 MIC [7]: 0.50 µg/mL
- Efm14 MIC [1, 12]: 0.5 µg/mL
- Sa399 MIC [11, 12]: 0.5 µg/mL
- Efs312 MIC [2]: 0.5 µg/mL
- Efm384 MIC [3]: 1 µg/mL
- Sa42 MIC [9, 12]: 0.25 µg/mL
- Efs201 MIC [10, 12]: 0.5 µg/mL
- as active or more active than daptomycin [4]: as active or more active than daptomycin
- more active against bacteria than daptomycin [4]: more effective than daptomycin
- C. diff MIC90 [5]: 1 µg/mL
- useful against daptomycin resistant strains of bacteria [6]: useful against daptomycin resistant strains of bacteria

Reference: patent US20150337013A1, “NOVEL ANTIBACTERIAL AGENTS FOR THE TREATMENT OF GRAM POSITIVE INFECTIONS” (priority 2008, published 2015)
